In patent US9974806B2 (priority 2012, dated 2018):

Tested on: Shiga toxins

colloidal bismuth hydroxide gel [CBHG]
cytotoxic activity on Vero cells: significant decrease
